Results published in patent US20250345446A1 (Draupnir Bio ApS, priority 2022, published 2025).
Like-named read-outs stand apart in the source and are kept apart here. Values belong to the molecule of their own block, whether it stands above or below them. Residues, ends and D or L forms follow the SMILES beside them. *: point of attachment. Biotin = O=C1N[C@H]2[C@H](CS[C@H]2CCCCC(=O)*)N1

How the values were obtained:
[1] = tested on: HEK293/sortilin cells; experiment: Remaining TNFalpha in conditioned media (ELISA); assay type: cell-based; conditions: after 72 h, 20 nM TNFalpha; added TNFalpha (100%) subtracted remaining TNFalpha (%)
Protocol: In different experiments, HEK293/sortilin cells were incubated with compound gradient series and 20 nM TNFalpha for up to 72 h. Following incubation, remaining TNFalpha in conditioned media was evaluated using human TNF-alpha Quantikine ELISA Kit (R&D systems, DTA00D).

[2] = tested on: HEK293/sortilin cells; experiment: Pulse-chase cellular degradation of TNFalpha (Western blot of lysates); assay type: cell-based; conditions: 24 h pre-incubation with compound 3 μM and TNFalpha 100 nM, chase 0 h to 24 h
Protocol: To monitor cellular degradation of target over time, a pulse-chase experiment was performed: HEK293/sortilin cells were pre-incubated with bifunctional compound (3 μM) and TNFalpha (100 nM) for 24 h before replacing culture supernatant with fresh media without target and bifunctional compound. Following replacement of media, cells were incubated for up to 24 h and TNFa levels was assessed at different timepoints by Western blotting of cell lysates.

[3] = tested on: HEK293 cells expressing full length sortilin receptor; experiment: Cellular uptake of TNFalpha / Cy5-TNFalpha mediated by bifunctional compounds; assay type: cell-based; conditions: 24 h, 0.5 nM to 20 μM, leupeptin 80 μM vs without
Protocol: Cellular uptake of TNFalpha was investigated in HEK293 cells expressing full length sortilin receptor using a methodology analogous to example 3 with TNFalpha target.
Efficacy of individual bifunctional compounds was assessed as AUC of TNFalpha internalisation (Table 9)

[4] = target: T1, soluble ectodomain of sortilin-6his (Homo sapiens, UniProt Q99523, V650M); experiment: MST binding to soluble ectodomain of sortilin-6his; conditions: MST, read-out: KD score, binding to sortilin (Kd)
T1 construct: the soluble ectodomain of sortilin-6his is measured by microscale thermophoresis (MST)

[5] = tested on: TNFa plasma levels; experiment: Mouse model of LPS induced acute systemic inflammation, plasma TNFa; assay type: in vivo; conditions: 10 or 30 mg/kg, 1 hour after LPS, C57BL/6J mice, p<0.0001 (one-way ANOVA)
Protocol: Degrader in vivo efficacy was investigated in a mouse model of lipopolysaccaride (LPS) induced acute systemic inflammation. Female C57BL/6J mice, 8 weeks of age were used in this model, and LPS was dosed as IP injection at a final concentration of 0.5 mg/kg in PBS at 10 ml/kg. 30 min to 3 hours prior LPS administration, animals were dosed with test compound (100-0.3 mg/kg/IP), dexamethasone (Dex) control (0.5 mg/kg/PO) or vehicle control (IP). Untreated (normal) animals were included as control for LPS induced TNFa expression. One hour post LPS administration, blood samples were collected and TNFa level was assessed by Cytometric Bead Array assay.

[6] = tested on: HEK293/sortilin cells; experiment: Lysosomal degradation of internalized AlexaFluor488-anti-DNP antibody (blotted lysates); assay type: cell-based; conditions: 6:30 h, AlexaFluor488-anti-DNP antibody 100 nM, compound 30 nM
Protocol: Intracellular levels of AlexaFluor488-anti-DNP antibody (Thermo Fisher) following internalization was investigated in HEK293/sortilin cells. Cells (250k) were seeded in 4-well plates in 250 μL culture medium as described in Example 3 and incubated overnight.
Culture medium was replaced with assay medium (as described in Example 3) with AlexaFluor488-anti-DNP antibody (Thermo Fisher) (100 nM) and BF005 (30 nM). Selected samples were added sortilin inhibitor, AF38469 (10 μM) or a lysosomal protease inhibitor, Leupeptin (80 μM) (Sigma Aldrich). Cells were incubated 3-6: 30 h in cell incubator before they were washed with dPBS (Bionordika) and medium was either replaced with assay medium without BF005 and AlexaFluor488-anti-DNP antibody and incubated in cell incubator for up to 24 h or cells were lysed. Following incubation, cells were lysed in lysis buffer, and lysates were subjected to SDS-PAGE before transfer of proteins to a nitrocellulose membrane as described in Example 4. AlexaFluor488 FI signal was detected using an iBright 1500 (Thermo Fisher). Following evaluation of FI signal, membrane was blocked and incubated with primary anti-β-actin antibody (1:3500) (Sigma Aldrich) and secondary anti-mouse-HRP antibody (1:3500) (Abcam) and developed and analyzed using ECL reagents (Cytiva) and iBright 1500 (Thermo Fisher), as described in example 4. […]

[7] = tested on: HEK293/sortilin cells; experiment: Depletion of NA650 from cell culture supernatant; assay type: cell-based; conditions: after 48 and 72 hours, NA650 100 nM, 20 nM-5 μM
Protocol: HEK293/sortilin cells were cultured in culture media containing DMEM (Lonza) further supplemented with 10% fetal bovine serum (Sigma), 1% GlutaMax Supplement (Gibco), penicillin-streptomycin (Thermo Fischer) and selection antibiotics 100 μg/mL Zeocin (Invitrogen). 35k cells/well were seeded in poly-L-lysine coated 96-well plates (Perkin Elmer) and allowed to incubate for 16-24 h in cell incubator (37° C., humidified, 5% CO2). Culture media were discarded, and the cells were washed with assay medium containing FluoroBright DMEM (Gibco) supplemented with 10% fetal bovine serum (Sigma) and 1% GlutaMax Supplement (Gibco). The media were discarded and replaced with assay media or assay medium containing 100 nM NA650 (Invitrogen). For wells evaluating the bifunctional compounds, the assay medium also contained concentrations ranging from 20 nM to 5 μM. After an incubation period of up to 72 h in the cell incubator the media were harvested and the presence of NA650 were evaluated by fluorescence intensity (FI) measurements of DyLight650 using a fluorescence plate reader (BMG Labtech Clariostar).
HEK293/sortilin cells (35k cells/96-well) were seeded in culture media (as described in Example 3) and incubated for 24 h in cell incubator. Culture media were discarded, and the cells were washed with assay medium containing FluoroBright DMEM (Gibco) and supplements as described in Example 3, before incubation in assay medium containing 100 nM NA650 and small molecule bifunctional compounds (20 nM to 5 μM). After an incubation period of up to 72 h, the media were harvested and the presence of NA650 were evaluated by FI measurements of DyLight650 using a fluorescence plate reader (BMG Labtech Clariostar).

[8] = target: streptavidin, bifunctional compound and sortilin-6his (UniProt P22629+Q99523, V650M); experiment: TR-FRET ternary complex formation streptavidin / bifunctional peptide / sortilin-6his; conditions: Table 2; […] incubation, HTRF ratio 665/620 nm
[9] = tested on: untransfected HEK239 cells; experiment: Cellular uptake of target in untransfected HEK293 cells (Example 22); assay type: cell-based; conditions: HEK293 cells without sortilin, 3 h, 2 nM to 2 μM, corresponding targets
[10] = tested on: HEK293/sortilin; experiment: Cellular uptake of target in HEK293 cells expressing sortilin receptor (Example 22); assay type: cell-based; conditions: 3 h, 2 nM to 2 μM, corresponding targets
[11] = target: T2, Sortilin-6His (Homo sapiens (Human), UniProt Q99523 78-755); experiment: MST on labelled sortilin-6his ectodomain
T2 construct: In MST it was labelled non-covalently with RED-tris-NTA; also called soluble ectodomain of sortilin-6his; fluorescent sortilin-6his

[12] = Table 4, small molecule bifunctional compounds

T1 sequence (Q99523 with tags, fused parts or gaps V650M): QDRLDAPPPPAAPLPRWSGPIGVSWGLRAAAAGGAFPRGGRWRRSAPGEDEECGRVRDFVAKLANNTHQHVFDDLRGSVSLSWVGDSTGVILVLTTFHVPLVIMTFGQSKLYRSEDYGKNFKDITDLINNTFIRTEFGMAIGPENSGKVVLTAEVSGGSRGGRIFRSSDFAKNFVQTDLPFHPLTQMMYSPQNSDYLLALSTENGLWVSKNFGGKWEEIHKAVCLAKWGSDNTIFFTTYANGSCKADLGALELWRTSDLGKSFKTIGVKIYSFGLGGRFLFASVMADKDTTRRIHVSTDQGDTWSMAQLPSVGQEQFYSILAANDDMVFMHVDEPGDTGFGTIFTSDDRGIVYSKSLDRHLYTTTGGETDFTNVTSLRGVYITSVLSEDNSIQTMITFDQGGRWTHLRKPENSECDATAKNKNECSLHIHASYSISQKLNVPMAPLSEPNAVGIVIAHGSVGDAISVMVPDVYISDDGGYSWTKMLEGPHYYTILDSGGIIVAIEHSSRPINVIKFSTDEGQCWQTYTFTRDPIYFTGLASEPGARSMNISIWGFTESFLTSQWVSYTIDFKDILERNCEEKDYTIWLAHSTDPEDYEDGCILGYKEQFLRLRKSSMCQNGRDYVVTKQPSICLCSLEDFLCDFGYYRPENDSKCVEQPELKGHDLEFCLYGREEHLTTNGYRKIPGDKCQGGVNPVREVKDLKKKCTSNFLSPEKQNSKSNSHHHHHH
T2 sequence (Q99523 78-755 V650M limits assumed): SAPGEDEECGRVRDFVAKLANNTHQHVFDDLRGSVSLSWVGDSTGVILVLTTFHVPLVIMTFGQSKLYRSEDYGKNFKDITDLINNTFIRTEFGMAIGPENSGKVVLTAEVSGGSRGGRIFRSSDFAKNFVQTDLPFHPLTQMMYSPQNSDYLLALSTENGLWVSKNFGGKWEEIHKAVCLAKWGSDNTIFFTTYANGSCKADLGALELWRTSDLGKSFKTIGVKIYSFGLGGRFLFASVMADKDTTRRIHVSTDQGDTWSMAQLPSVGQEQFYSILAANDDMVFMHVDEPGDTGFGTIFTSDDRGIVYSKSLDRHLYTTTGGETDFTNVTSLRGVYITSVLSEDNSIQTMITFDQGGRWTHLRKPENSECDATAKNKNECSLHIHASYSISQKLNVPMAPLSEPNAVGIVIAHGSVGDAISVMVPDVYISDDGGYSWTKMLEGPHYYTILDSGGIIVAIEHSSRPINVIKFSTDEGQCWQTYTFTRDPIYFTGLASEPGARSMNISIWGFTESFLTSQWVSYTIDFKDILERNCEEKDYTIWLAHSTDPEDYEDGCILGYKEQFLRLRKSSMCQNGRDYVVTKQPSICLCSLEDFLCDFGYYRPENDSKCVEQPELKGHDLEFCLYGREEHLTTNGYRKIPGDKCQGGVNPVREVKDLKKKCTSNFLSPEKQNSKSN

Molecule: C[C@@H]1CN(c2ncc(-c3ccc4c(n3)N(Cc3cccnc3C#N)C(C)(C)C4=O)cn2)CCN1C(=O)CNC(=O)CCCCCCCCCCCNC(=O)c1cccc(Oc2ccc(C(=O)N[C@@H](CCC(C)(C)C)C(=O)O)cn2)c1 [BF042, (2S)-2-[[6-[3-[[12-[[2-[(2R)-4-[5-[1-[(2-cyano-3-pyridyl)methyl]-2,2-dimethyl-3-oxo-pyrrolo[2,3-b]pyridin-6-yl]pyrimidin-2-yl]-2-methyl-piperazin-1-yl]-2-oxo-ethyl]amino]-12-oxo-dodecyl]carbamoyl]phenoxy]pyridine-3-carbonyl]amino]-5,5-dimethyl-hexanoic acid]
Maximum clearance rates of TNFalpha from conditioned media [1]: 74.4% | TNFalpha bands in cell lysate over time [2]: barely detectable after 7 h | cell associated FI signal with addition of leupeptin [3]: marked increases cell associated signal | Kd [4, 12]: 1 to 10 nM

Molecule: CNC(=O)c1cccc2c(Oc3ccc(C(=O)N[C@@H](CCC(C)(C)C)C(=O)O)cn3)cccc12 [SB001, (2S)-5,5-dimethyl-2-[[6-[[5-(methylcarbamoyl)-1-naphthyl]oxy]pyridine-3-carbonyl]amino]hexanoic acid]
Ig heavy chain (HC) band in lysates [6]: absent

Molecule: CC(C)C[C@H](NC(=O)[C@H](CC(C)C)NC(=O)[C@H](CCC(N)=O)NC(=O)[C@H](Cc1ccccc1)NC(=O)CNC(=O)CNC(=O)[C@H](CO)NC(=O)CNC(=O)CNC(=O)CNC(=O)CNC(=O)[C@H](CO)NC(=O)CNC(=O)CNC(=O)CNC(=O)CNC(=O)[C@H](CO)NC(=O)CNC(=O)CNC(=O)CCCC[C@@H]1SC[C@@H]2NC(=O)N[C@@H]21)C(=O)O [SEQ ID NO.: 155] (Biotin-GGSGGGGSGGGGSGGFQLL-OH)
NA650 FI signal in supernatant compared to SEQ ID NO.: 147 (in words) [7]: further reduction of target in cell culture supernatant | AUC score, TR-FRET measurements of ternary complex formation [8]: ++ (AUC > 5000) | cell associated FI response to increasing degrader concentration [9]: No response | Kd ([4]; Table 1, biotin-linker-peptide bifunctional compounds): 100 to 2000 nM | cell associated FI response to increasing degrader concentration [10]: bell-shaped FI response

Further lines, with some results ahead:

Kd [4, 12]: 1 to 10 nM
Molecule: Cc1nc2cc(F)c(-c3cnc(N4CCN(C(=O)Cn5cc(COCCOCCOCC(=O)N6CCC(Oc7cccc(Oc8ccc(C(=O)N[C@@H](CCC(C)(C)C)C(=O)O)cn8)c7)CC6)nn5)[C@H](C)C4)nc3)nc2c(N[C@H](C)c2cc(C#N)ccc2F)c1Cl [BF094, (2S)-2-[[6-[3-[[1-[2-[2-[2-[[1-[2-[(2R)-4-[5-[7-chloro-8-[[(1R)-1-(5-cyano-2-fluoro-phenyl)ethyl]amino]-3-fluoro-6-methyl-1,5-naphthyridin-2-yl]pyrimidin-2-yl]-2-methyl-piperazin-1-yl]-2-oxo-ethyl]triazol-4-yl]methoxy]ethoxy]ethoxy]acetyl]-4-piperidyl]oxy]phenoxy]pyridine-3-carbonyl]amino]-5,5-dimethyl-hexanoic acid]
plasma TNFa compared to vehicle group [5]: significant decrease

binding result [11]: no binding
B1: Biotin-GGSGGGGSGGGGSGG-OH (peptide)
peptide: Biotin-GGSGGGGSGGGGSGG-OH
SMILES: O=C(O)CNC(=O)CNC(=O)[C@H](CO)NC(=O)CNC(=O)CNC(=O)CNC(=O)CNC(=O)[C@H](CO)NC(=O)CNC(=O)CNC(=O)CNC(=O)CNC(=O)[C@H](CO)NC(=O)CNC(=O)CNC(=O)CCCC[C@@H]1SC[C@@H]2NC(=O)N[C@@H]21
